According to the Kinase Knowledgebase extract (Sharma et al. 2016):
Values joined by “and” are separate entries in the source; they are usually repeats but may differ in a detail not shown here. Equal values may be shown once.

biological target: MAPK14 (UniProt Q16539); assay: p38 alpha Kinase Inhibition Assay; conditions: not given
Sequence (Q16539 whole entry, looked up): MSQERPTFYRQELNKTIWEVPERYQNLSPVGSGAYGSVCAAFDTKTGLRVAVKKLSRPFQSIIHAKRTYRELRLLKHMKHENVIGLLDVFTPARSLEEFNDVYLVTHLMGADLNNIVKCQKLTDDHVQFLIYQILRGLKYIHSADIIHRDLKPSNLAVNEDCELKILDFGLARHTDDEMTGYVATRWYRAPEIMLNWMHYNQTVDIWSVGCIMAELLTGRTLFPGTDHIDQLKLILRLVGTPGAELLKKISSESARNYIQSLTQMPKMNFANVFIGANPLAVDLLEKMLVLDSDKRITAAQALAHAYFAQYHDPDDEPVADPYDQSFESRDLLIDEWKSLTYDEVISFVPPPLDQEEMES

SMILES | IC50
CCNCCCn1ccc2cc(C(=O)N3CCC(Cc4ccccc4)CC3)c(Cl)cc21 | 199 nM
O=C(c1ccc2ccn(C(=O)c3ccncc3)c2c1)N1CCC(Cc2ccccc2)CC1 | 505 nM
O=C(c1ccc2[nH]ccc2c1)N1CCC(Cc2ccccc2)CC1 | 150 to 242 nM and 523 to 577 nM
O=C(c1ccc2c(ccn2C(=O)c2ccncc2)c1)N1CCC(Cc2ccccc2)CC1 | 405 to 871 nM
CCNCCCn1ccc2cc(C(=O)N3CCC(Cc4ccc(F)cc4)CC3)ccc21 | 354 nM
O=C(c1ccc2cc[nH]c2c1)N1CCN(Cc2ccccc2)CC1 | 4970 to 5520 nM

The next lines start with the values.

IC50 | SMILES
2150 nM | O=C(c1ccc2nc[nH]c2c1)N1C2CCC1CC(Cc1ccccc1)C2 (configuration not stated)
800 nM | O=C(c1ccc2c(ccn2-c2ccncc2)c1)N1CCC(Cc2ccccc2)CC1

same assay, conditions: concentration not given here

inhibition [%] | SMILES
63 | COc1cc2[nH]ccc2cc1C(=O)N1C2CCC1CC(Cc1ccccc1)C2 (configuration not stated)
51 | O=C(c1ccc2cc[nH]c2c1)N1CCC(Cc2ccc(F)cc2)C1 (configuration not stated)

biological target: EGFR (UniProt P00533); assay: not given; conditions: not given
Sequence (P00533 whole entry, looked up): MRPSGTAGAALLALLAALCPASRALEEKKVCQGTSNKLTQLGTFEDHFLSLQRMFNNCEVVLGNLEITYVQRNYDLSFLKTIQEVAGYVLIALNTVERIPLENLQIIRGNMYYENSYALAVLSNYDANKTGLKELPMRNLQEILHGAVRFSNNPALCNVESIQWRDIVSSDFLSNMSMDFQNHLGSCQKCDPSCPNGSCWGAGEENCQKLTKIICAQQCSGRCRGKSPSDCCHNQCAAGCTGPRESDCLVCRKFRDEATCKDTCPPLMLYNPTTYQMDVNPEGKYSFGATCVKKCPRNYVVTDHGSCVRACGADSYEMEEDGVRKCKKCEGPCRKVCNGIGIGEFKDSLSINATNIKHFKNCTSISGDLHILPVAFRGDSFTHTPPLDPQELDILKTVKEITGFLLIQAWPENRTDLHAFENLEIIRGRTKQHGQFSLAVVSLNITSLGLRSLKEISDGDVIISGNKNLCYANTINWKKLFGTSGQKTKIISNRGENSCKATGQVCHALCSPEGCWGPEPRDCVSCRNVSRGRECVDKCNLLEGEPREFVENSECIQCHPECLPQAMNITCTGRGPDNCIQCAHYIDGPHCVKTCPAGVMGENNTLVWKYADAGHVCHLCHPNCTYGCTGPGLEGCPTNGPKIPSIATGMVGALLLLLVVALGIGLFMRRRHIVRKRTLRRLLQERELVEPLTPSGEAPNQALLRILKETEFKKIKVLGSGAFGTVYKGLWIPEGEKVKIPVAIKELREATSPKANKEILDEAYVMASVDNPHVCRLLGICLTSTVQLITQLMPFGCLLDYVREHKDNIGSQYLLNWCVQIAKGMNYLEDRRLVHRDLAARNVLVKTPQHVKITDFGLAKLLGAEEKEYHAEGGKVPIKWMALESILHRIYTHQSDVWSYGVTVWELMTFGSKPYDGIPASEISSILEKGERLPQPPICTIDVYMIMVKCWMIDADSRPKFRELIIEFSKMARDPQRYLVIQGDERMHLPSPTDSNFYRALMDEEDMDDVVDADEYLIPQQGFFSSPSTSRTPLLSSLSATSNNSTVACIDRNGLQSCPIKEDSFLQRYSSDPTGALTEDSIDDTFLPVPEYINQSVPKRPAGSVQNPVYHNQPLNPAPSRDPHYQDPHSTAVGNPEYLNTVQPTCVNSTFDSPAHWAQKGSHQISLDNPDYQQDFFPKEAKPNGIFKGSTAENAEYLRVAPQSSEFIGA

IC50 [nM] | SMILES
> 500000 | O=C(c1ccc2cc[nH]c2c1)N1CCC(Cc2ccccc2)CC1
> 500000 | O=C(c1ccc2[nH]ccc2c1)N1CCC(Cc2ccccc2)CC1
